{
  "source": "paper PMC13672995",
  "about": "“NCR13 peptide protects soybean against Cercospora sojina using multi-faceted modes of action and additive interaction with chemical fungicides” (Journal of Experimental Botany, 2025)",
  "key": {"[1]": {"system": "C. sojina Cs350 conidia and germlings", "experiment": "Plasma membrane permeabilization assay (SYTOX Green)", "format": "cell-based, Cercospora sojina", "protocol": "Membrane permeabilization of C. sojina Cs350 by NCR13_PFV1 and azoxystrobin was analyzed by visualizing the influx of SYTOX Green (SG) (Thermo Scientific) using time-lapse confocal microscopy. Germlings grown for 6–8 h or conidia of C. sojina were mixed with various concentrations of NCR13_PFV1, azoxystrobin, or both and 0.5 µM SG and were observed under confocal microscopy at an excitation wavelength of 500 nm and an emission wavelength ranging from 510 nm to 600 nm at specific time intervals. A z-stack at each time point was acquired using a ×63 water immersion objective lens (HC PL Apochromat CS2)."}, "[2]": {"system": "azoxystrobin-resistant C. sojina Cs350 conidia", "experiment": "Cell death detection assay (propidium iodide, confocal microscopy)", "format": "cell-based, Cercospora sojina", "conditions": "NCR13_PFV1 1.5 μM alone; within 1 h; PI staining; n=3", "protocol": "The fungicidal activity of azoxystrobin and peptide NCR13_PFV1 in azoxystrobin-resistant C. sojina Cs350 was analyzed by visualizing the influx of a cell death indicator dye propidium iodide (PI) using time-lapse confocal microscopy. The C. sojina conidia were treated with various concentrations of azoxystrobin, NCR13_PFV1, azoxystrobin plus NCR13_PFV1, or water and 0.5 μg ml^–1 PI, and were observed under confocal microscopy at an excitation and emission wavelength of 500 nm and 545–690 nm, respectively. Z-stacks at each time point were acquired using a ×63 water immersion objective lens (HC PL Apochromat CS2). For each sample, the number of live and dead cells after 1 h of peptide, fungicide, or combination treatment was determined."}, "[3]": {"system": "C. sojina QoI fungicide-resistant isolate Cs350", "format": "cell-based, Cercospora sojina", "protocol": "In vitro antifungal activity of AFPs and QoI fungicides was determined using 96-well plate assays as described ([Velivelli et al., 2020]) with slight modifications. Briefly, 2- to 3-week-old C. sojina was used to make a conidial suspension in 2× SFM at the final concentration of ∼10^5 conidia ml^−1. Simultaneously, peptide dilutions (in water) at various concentrations were made. Fungicides were dissolved in 50% acetone and 50% water to make a stock solution of 500 µM, and serial dilutions were made in water as needed. The peptide–conidia or the fungicide–conidia mixture at the ratio of 1:1 (45 µl:45 µl) was added in a 96-well plate and incubated at room temperature for 48 h, after which MICs of the peptides/fungicides were calculated based on microscopy as well as the resazurin cell viability assay ([Velivelli et al., 2020])."}, "[4]": {"experiment": "Peroxidase assay (TMB substrate)", "format": "biochemical", "conditions": "heme 5 µM, peptide 5 µM, absorption at 370 nm and 652 nm", "protocol": "A Pierce TMB substrate kit (Thermo Scientific) was used to measure the peroxidase activity of heme. In a transparent 96-well plate, 50 µl of TMB substrate and 50 µl of […] were added followed by addition of heme (5 µM) or peptides plus heme (5 µM each). The reaction progression was measured in the Tecan plate reader, by recording UV-vis absorption values at 370 nm and 652 nm for every minute up to 1 h."}},
  "note": "Where no end group is shown, it is not given here.",
  "data": [
    {"sequence": "TKPCQSDKDCKKFACRKPKVPKCINGFCKCVR (disulfide (positions not given here)) [NCR13_PFV1, chickpea nodule-specific cysteine-rich 32 amino acid peptide, disulfide cross-linking variant 1, expressed in Pichia pastoris]", "values": [
      {"measurement": "plasma membrane permeabilization (SYTOX Green uptake)", "setting": "[1]; Cs350, 0.5 µM SG, confocal microscopy", "result": "permeabilization of the plasma membrane"},
      {"measurement": "time to plasma membrane permeabilization of conidia and germlings", "setting": "[1]; SYTOX Green uptake", "result": "≤ 10", "unit": "min"},
      {"measurement": "cell death", "setting": "[2]", "result": 57, "unit": "%"},
      {"measurement": "MIC in SFM without iron", "setting": "[3]; 0 μM FeSO4, 2 d", "result": 0.75, "unit": "µM"},
      {"measurement": "change of MIC with calcium supplementation", "setting": "[3]; CaCl2, up to 20 μM", "result": "No change in MIC"},
      {"measurement": "MIC in SFM with ≥7.5 μM iron", "setting": "[3]; FeSO4 up to 60 μM, 2 d", "result": 3, "unit": "µM"},
      {"measurement": "change of MIC with manganese supplementation", "setting": "[3]; MnSO4, various concentrations", "result": "No change in MIC"},
      {"measurement": "MIC (μM) against C. sojina, Fungicide resistant, Cs350", "setting": "[3]; SFM, ~10^5 conidia ml−1, room temperature, 48 h, resazurin cell viability assay and microscopy", "result": 1.5, "unit": "µM"},
      {"measurement": "change of MIC with zinc supplementation", "setting": "[3]; ZnSO4, various concentrations", "result": "No change in MIC"},
      {"measurement": "peroxidase activity of heme and FeSO4 in the presence of peptide", "setting": "[4]", "result": "not reduced or stopped"}
    ]}
  ]
}
